Legend:
Format in all cases: cell-based
[1] = test system: HIV-1 LTR promoter; assay: dCas9-VPH/msgRNA (or SAHA) reactivation of latent LTR-eLuc reporter in TZM-bI cells; details: TZM-bI, transient transfection or lentivirus infection, 2 days
Procedure: Cells were plated in 96-well plate and the indicated MS2-gRNAs were cotransfected by Lipofectamine 3000 (FIG. 3A) or coinfected by lentiviruses (FIG. 3B, MOI=50) with pMSCV-LTR-dCas9-VP64-BFP plus pLV-MS2-p65-HSF1-GFP. Two days later, OneGlo luminescence assay was performed. The SIV MS2-gRNA-D was used as negative control. […] The gRNA-J has no effect due to 2 nucleotides mismatch to the LTR sequence from TZM-bI cells.
FIG. 8A, FIG. 8B, FIG. 8C, and FIG. 8D, depict the results of experiments of screening of MS2-mediated sgRNAs (msgRNAs) targeting the HIV-1 long terminal repeat (LTR) in the dCas9-synergistic activation mediator (SAM) system. FIG. 8A is a schematic illustration of SAM-VPH complex derived from dCas9-VP64 (V) and MS2-p65-HSF1 (PH) with msgRNAs. FIG. 8B is a graph showing similar activation of transfected EcoHIV-eLuc reporter by inducible (TRE) or constitutive (LTR) dCas9-VP64 expression in HEK293T cells. FIG. 8C is a graph showing similar reactivation of latent HIV-LTR-eLuc reporter in TZM-bI cells after either transient plasmid transfection by Lipofectamine 3000 or stable infection by lentivirus. […] The gRNA-J has no effect due to 2 nucleotides mismatch to the LTR sequence from TZM-bI cells. […]
FIG. 9A and FIG. 9B: TZM-bI cells were infected with dCas9-VPH and indicated msgRNA lentiviruses at 1 or 10 MOI and luciferase activity was measured at 2-21 days post-infection (dpi). […]
FIG. 12A, FIG. 12B, FIG. 12C: The dCas9-VPH stable TZM-bI cells were treated with SAHA or infected with indicated msgRNAs lentivirus for 2-4 d before luminescence reporter assay (FIG. 12A) and CELLTITER-GLO® luminescent cell viability assay (FIG. 12B). […]
Experiments were conducted to compare reactivation of HIV-LTR luciferase reporter in TZM-BI cells induced by gRNA/dCas9-VP64/MS2-p65-HSF1/delivered by either transient plasmid transfection (FIG. 3A) or stable lentivirus infection (FIG. 3B). […] Two days later, OneGlo luminescence assay was performed. […]

[2] = test system: HIV-1 LTR promoter; assay: dCas9-VP64/sgRNA reactivation of latent LTR-luciferase reporter in TZM-bI cells; details: sgRNA/dCas9-VP64 cotransfection, 3 days, relative to empty sgRNA control
Text: FIG. 1A, FIG. 1B, and FIG. 1C, depict results of experiments comprising HIV-1 LTR-gRNA screening for dCas9-VP64-induced reactivation of latent LTR-luciferase reporter in TZM-bI cells. FIG. 1A is a schematic illustration depicting HIV-gRNA target sites. FIG. 1B is a schematic depicting gRNA/dCas9-VP64 binding to a target region of HIV-LTR that drives luciferase expression in TZM-bI cells. FIG. 1C depicts the results of experiments investigating the reactivation of HIV-LTR (as measured by luciferase reporter) induced by the various gRNAs. […] After 3 days, the luminescence of the cell lysate was measured with OneGlo luminescence kit. […]
Cultured cells were transfected using lipofectamine3000 transfection or lentivirus infection. The firefly-luciferase reporter assay was used using Envision multiplate reader. Treated and controls were imaged using fluorescent microscopy and/or were analyzed using flow cytometry. […]
(§1) Cells were cultured in a 96-well plate and transfected or transduced with indicated vectors. To examine the eLuc reporter activity, the cell lysate was prepared using the ONE-Glo luciferase assay system (Promega) and luminescence was measured in a 2104 ENVISION® Multilabel Reader (PerkinElmer). […]

[3] = test system: HIV-1 LTR promoter; assay: dCas9-VP64/MS2-p65-HSF1 (SAM, dCas9-VPH) with MS2-sgRNA: EcoHIV-eLuc reporter assay in HEK293T cells; details: MS2-sgRNA/dCas9-VP64/MS2-p65-HSF1, pEcoHIV-NL4-3-eLuc, MS2-p65-HSF1 only = 1.00
Text: FIG. 2A, FIG. 2B, and FIG. 2C, depict results of experiments comprising HIV-1 LTR-MS2-gRNA screening for LTR reactivation by SAM complex dCas9-VP64/MS2-p65-HSF1 in HEK293T cells. FIG. 2A and FIG. 2B depict a schematic of complex formation at the target site, where the complex comprises MS2-binding gRNA, dCas9-VP64, and MS2-p65-HSF1. FIG. 2C is a graph depicting the results of experiments investigating the reactivation of HIV-LTR induced by the various MS2-binding gRNA using pEcoHIV-NL4-3-eLuc reporter assay. […]
as §1
Thus, the newly-developed MS2-mediated SAM system was applied (FIG. 8A), which combined dCas9-VP64 with MS2-p65-HSF1 clustered trans-activators, designated dCas9-VPH (Konermann et al., 2015, Nature 517:583-8). […] To determine if dCas9-VPH/msgRNAs induced a better reactivation of HIV-1 latency, HIV-latent TZM-bI cells was cotransfected or cotransduced with dCas9-VPH and indicated msgRNAs (FIG. 8C) and the latency-reversing capability was measured. […]

Substance	reactivation of HIV-LTR-luciferase reporter (in words) [1]	sgRNA TZM-bI Fold (LTR-luciferase reporter) [2]	MS2-sgRNA HEK293T Fold (EcoHIV-eLuc reporter) [3]
MS2-p65-HSF1: MS2 bacteriophage coat protein fused to p65 and HSF1 transactivation domains (SEQ ID NO: 108)	did not influence the basal activity		
LTR-P		1.15 Fold	1.32 Fold

Source: patent US20180073018A1, “COMPOSITIONS AND METHODS FOR SPECIFIC REACTIVATION OF HIV LATENT RESERVOIR” (priority 2015, published 2018)
